According to paper PMC7419507, “In vitro Cas9-assisted editing of modular polyketide synthase genes to produce desired natural product derivatives” (Nature Communications, 2020):
“And” between values parts separate entries of the source, which are not always exact repeats. Equal values may be shown once.

Experiments:
[1] = Cytotoxicity assay (CellTiter-Glo, 72 h), Jurkat; type: cell-based; conditions: human, Jurkat cells (T lymphoma), raw data (replicates)
In short: (§1)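 Luminescent ATP read-out (CellTiter-Glo) quantified surviving cells after a 72 h incubation with 2-fold diluted compounds in 0.5% DMSO, added 4 h post-seeding at 1000 cells/well.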

T lymphoma Jurkat cells = test: Cytotoxicity assay (CellTiter-Glo, 72 h), Jurkat; type: cell-based; conditions: raw data (replicates)
In short: as §1

[2] = Cytotoxicity assay (CellTiter-Glo, 72 h), SKOV-3; type: cell-based, human; conditions: human, raw replicate data, read-out: SKOV3 viability (%)
In short: as §1

[3] = system: human ovarian adenocarcinoma SKOV-3 cells; test: Cytotoxicity assay (CellTiter-Glo, 72 h), SKOV-3; type: cell-based; conditions: raw replicate data
In short: as §1

[4] = Cytotoxicity assay (CellTiter-Glo, 72 h), MESO-1; type: cell-based; conditions: human, MESO-1 malignant pleural mesothelioma cells, raw replicate data, read-out: MESO1 viability (%)
In short: as §1

[5] = system: malignant pleural mesothelioma MESO-1 cells; test: Cytotoxicity assay (CellTiter-Glo, 72 h), MESO-1; type: cell-based; conditions: raw replicate data
In short: as §1

[6] = system: Jurkat, SKOV-3 and MESO-1 cells; test: Cytotoxicity assay, statements for all tested cell lines together; type: cell-based; conditions: Jurkat, SKOV-3 and MESO-1 cells, 72 h
In short: as §1

CO[C@@H]1/C=C/C=C/[C@@H](C)C[C@@H](C)C(=O)C[C@H](O)/C(C)=C/[C@@H](C)C(=O)C[C@@H]([C@H](C)C[C@@H]2CC[C@@H](O)[C@H](OC)C2)OC(=O)[C@@H]2CCCCN2C(=O)C(=O)[C@]2(O)O[C@@H](CC[C@H]2C)C1 [Compound 9]
viability at 72 h, 9.53674e-05 uM ([1]; conc 9.53674e-5 uM): 97.1% | viability at 72 h, 0.000190735 uM ([1]; conc 0.000190735 uM): 100% | viability at 72 h, 0.00038147 uM ([1]; conc 0.00038147 uM): 106% | viability at 72 h, 0.000762939 uM ([1]; conc 0.000762939 uM): 102% | viability at 72 h, 0.00152588 uM ([1]; conc 0.00152588 uM): 106% | viability at 72 h, 0.00305176 uM ([1]; conc 0.00305176 uM): 97.7% | viability at 72 h, 0.00610352 uM ([1]; conc 0.00610352 uM): 105% | viability at 72 h, 0.012207 uM ([1]; conc 0.012207 uM): 92.7% | viability at 72 h, 0.0244141 uM ([1]; conc 0.0244141 uM): 93.7% | viability at 72 h, 0.0488281 uM ([1]; conc 0.0488281 uM): 86% | viability at 72 h, 0.0976562 uM ([1]; conc 0.0976562 uM): 74.9% | viability at 72 h, 0.195312 uM ([1]; conc 0.195312 uM): 60.9% | viability at 72 h, 0.390625 uM ([1]; conc 0.390625 uM): 51.4% | viability at 72 h, 0.78125 uM ([1]; conc 0.78125 uM): 42.4% | viability at 72 h, 1.5625 uM ([1]; conc 1.5625 uM): 36.2% | viability at 72 h, 3.125 uM ([1]; conc 3.125 uM): 29.7% | viability at 72 h, 6.25 uM ([1]; conc 6.25 uM): 31.2% | viability at 72 h, 12.5 uM ([1]; conc 12.5 uM): 29% | viability at 72 h, 25 uM ([1]; conc 25 uM): 27.4% | viability at 72 h, 50 uM ([1]; conc 50 uM): 18.3% | Jurkat viability (%) (T lymphoma Jurkat cells; conc 9.53674e-5 uM): 97.9% and 103.8% | Jurkat viability (%) (T lymphoma Jurkat cells; conc 0.000190735 uM): 101.0% and 98.6% | Jurkat viability (%) (T lymphoma Jurkat cells; conc 0.00038147 uM): 107.1% and 103.4% | Jurkat viability (%) (T lymphoma Jurkat cells; conc 0.000762939 uM): 103.5% and 104.2% | Jurkat viability (%) (T lymphoma Jurkat cells; conc 0.00152588 uM): 104.2% and 102.7% | Jurkat viability (%) (T lymphoma Jurkat cells; conc 0.00305176 uM): 97.4% and 96.9% | Jurkat viability (%) (T lymphoma Jurkat cells; conc 0.00610352 uM): 101.3% and 103.8% | Jurkat viability (%) (T lymphoma Jurkat cells; conc 0.012207 uM): 97.2% and 97.8% | Jurkat viability (%) (T lymphoma Jurkat cells; conc 0.0244141 uM): 92.4% and 98.8% | Jurkat viability (%) (T lymphoma Jurkat cells; conc 0.0488281 uM): 88.4% and 81.5% | Jurkat viability (%) (T lymphoma Jurkat cells; conc 0.0976562 uM): 82.2% and 81.2% | Jurkat viability (%) (T lymphoma Jurkat cells; conc 0.195312 uM): 57.1% and 58.0% | Jurkat viability (%) (T lymphoma Jurkat cells; conc 0.390625 uM): 50.5% and 48.6% | Jurkat viability (%) (T lymphoma Jurkat cells; conc 0.78125 uM): 40.3% and 41.8% | Jurkat viability (%) (T lymphoma Jurkat cells; conc 1.5625 uM): 36.4% and 39.4% | Jurkat viability (%) (T lymphoma Jurkat cells; conc 3.125 uM): 29.6% and 29.1% | Jurkat viability (%) (T lymphoma Jurkat cells; conc 6.25 uM): 28.9% and 29.5% | Jurkat viability (%) (T lymphoma Jurkat cells; conc 12.5 uM): 26.0% and 28.1% | Jurkat viability (%) (T lymphoma Jurkat cells; conc 25 uM): 26.9% and 28.7% | Jurkat viability (%) (T lymphoma Jurkat cells; conc 50 uM): 17.4% and 19.3% | viability at 72 h, 9.53674e-05 uM ([2]; SKOV-3 cells (ovarian adenocarcinoma), conc 9.53674e-5 uM): 103% | viability at 72 h, 0.000190735 uM ([2]; SKOV-3 cells (ovarian adenocarcinoma), conc 0.000190735 uM): 105% | viability at 72 h, 0.00038147 uM ([2]; SKOV-3 cells (ovarian adenocarcinoma), conc 0.00038147 uM): 97.1% | viability at 72 h, 0.000762939 uM ([2]; SKOV-3 cells (ovarian adenocarcinoma), conc 0.000762939 uM): 101% | viability at 72 h, 0.00152588 uM ([2]; SKOV-3 cells (ovarian adenocarcinoma), conc 0.00152588 uM): 102% | viability at 72 h, 0.00305176 uM ([2]; SKOV-3 cells (ovarian adenocarcinoma), conc 0.00305176 uM): 97.4% | viability at 72 h, 0.00610352 uM ([2]; SKOV-3 cells (ovarian adenocarcinoma), conc 0.00610352 uM): 105% | viability at 72 h, 0.012207 uM ([2]; SKOV-3 cells (ovarian adenocarcinoma), conc 0.012207 uM): 99.1% | viability at 72 h, 0.0244141 uM ([2]; SKOV-3 cells (ovarian adenocarcinoma), conc 0.0244141 uM): 97.2% | viability at 72 h, 0.0488281 uM ([2]; SKOV-3 cells (ovarian adenocarcinoma), conc 0.0488281 uM): 90.5% | viability at 72 h, 0.0976562 uM ([2]; SKOV-3 cells (ovarian adenocarcinoma), conc 0.0976562 uM): 92.1% | viability at 72 h, 0.195312 uM ([2]; SKOV-3 cells (ovarian adenocarcinoma), conc 0.195312 uM): 75% | viability at 72 h, 0.390625 uM ([2]; SKOV-3 cells (ovarian adenocarcinoma), conc 0.390625 uM): 80.5% | viability at 72 h, 12.5 uM ([2]; SKOV-3 cells (ovarian adenocarcinoma), conc 12.5 uM): 60.9% | viability at 72 h, 25 uM ([2]; SKOV-3 cells (ovarian adenocarcinoma), conc 25 uM): 70.4% | viability at 72 h, 50 uM ([2]; SKOV-3 cells (ovarian adenocarcinoma), conc 50 uM): 52.8% | viability at 72 h, 0.78125 uM ([2]; SKOV-3 ovarian adenocarcinoma cells, conc 0.78125 uM): 70.1% | viability at 72 h, 1.5625 uM ([2]; SKOV-3 ovarian adenocarcinoma cells, conc 1.5625 uM): 73.8% | viability at 72 h, 3.125 uM ([2]; SKOV-3 ovarian adenocarcinoma cells, conc 3.125 uM): 65.5% | viability at 72 h, 6.25 uM ([2]; SKOV-3 ovarian adenocarcinoma cells, conc 6.25 uM): 70.2% | SKOV3 viability (%) ([3]; conc 9.53674e-5 uM): 105.9% and 100.3% | SKOV3 viability (%) ([3]; conc 0.000190735 uM): 101.8% and 104.0% | SKOV3 viability (%) ([3]; conc 0.00038147 uM): 103.8% | SKOV3 viability (%) ([3]; conc 0.000762939 uM): 99.7% and 104.2% | SKOV3 viability (%) ([3]; conc 0.00152588 uM): 108.5% and 105.8% | SKOV3 viability (%) ([3]; conc 0.00305176 uM): 98.1% | SKOV3 viability (%) ([3]; conc 0.00610352 uM): 101.6% and 106.7% | SKOV3 viability (%) ([3]; conc 0.012207 uM): 93.5% and 95.1% | SKOV3 viability (%) ([3]; conc 0.0244141 uM): 95.8% and 102.2% | SKOV3 viability (%) ([3]; conc 0.0488281 uM): 93.6% and 92.4% | SKOV3 viability (%) ([3]; conc 0.0976562 uM): 93.2% and 87.5% | SKOV3 viability (%) ([3]; conc 0.195312 uM): 79.8% and 81.0% | SKOV3 viability (%) ([3]; conc 0.390625 uM): 82.0% and 78.5% | SKOV3 viability (%) ([3]; conc 0.78125 uM): 67.6% and 71.1% | SKOV3 viability (%) ([3]; conc 1.5625 uM): 76.5% and 72.9% | SKOV3 viability (%) ([3]; conc 3.125 uM): 73.0% and 75.2% | SKOV3 viability (%) ([3]; conc 6.25 uM): 70.8% and 73.4% | SKOV3 viability (%) ([3]; conc 12.5 uM): 62.7% and 63.5% | SKOV3 viability (%) ([3]; conc 25 uM): 72.9% | SKOV3 viability (%) ([3]; conc 50 uM): 57.2% and 56.0% | viability at 72 h, 9.53674e-05 uM ([4]; conc 9.53674e-5 uM): 101% | viability at 72 h, 0.000190735 uM ([4]; conc 0.000190735 uM): 93.5% | viability at 72 h, 0.00038147 uM ([4]; conc 0.00038147 uM): 95% | viability at 72 h, 0.000762939 uM ([4]; conc 0.000762939 uM): 93.4% | viability at 72 h, 0.00152588 uM ([4]; conc 0.00152588 uM): 100% | viability at 72 h, 0.00305176 uM ([4]; conc 0.00305176 uM): 92.4% | viability at 72 h, 0.00610352 uM ([4]; conc 0.00610352 uM): 95.6% | viability at 72 h, 0.012207 uM ([4]; conc 0.012207 uM): 89.8% | viability at 72 h, 0.0244141 uM ([4]; conc 0.0244141 uM): 91% | viability at 72 h, 0.0488281 uM ([4]; conc 0.0488281 uM): 82.4% | viability at 72 h, 0.0976562 uM ([4]; conc 0.0976562 uM): 85.7% | viability at 72 h, 0.195312 uM ([4]; conc 0.195312 uM): 74.8% | viability at 72 h, 0.390625 uM ([4]; conc 0.390625 uM): 75.8% | viability at 72 h, 0.78125 uM ([4]; conc 0.78125 uM): 66.3% | viability at 72 h, 1.5625 uM ([4]; conc 1.5625 uM): 71.8% | viability at 72 h, 3.125 uM ([4]; conc 3.125 uM): 65.2% | viability at 72 h, 6.25 uM ([4]; conc 6.25 uM): 69.4% | viability at 72 h, 12.5 uM ([4]; conc 12.5 uM): 63.3% | viability at 72 h, 25 uM ([4]; conc 25 uM): 63.9% | viability at 72 h, 50 uM ([4]; conc 50 uM): 53% | MESO1 viability (%) ([5]; conc 9.53674e-5 uM): 98.3% and 100.4% | MESO1 viability (%) ([5]; conc 0.000190735 uM): 90.7% and 98.1% | MESO1 viability (%) ([5]; conc 0.00038147 uM): 97.4% and 97.9% | MESO1 viability (%) ([5]; conc 0.000762939 uM): 94.8% and 94.3% | MESO1 viability (%) ([5]; conc 0.00152588 uM): 99.1% and 102.8% | MESO1 viability (%) ([5]; conc 0.00305176 uM): 92.2% and 94.8% | MESO1 viability (%) ([5]; conc 0.00610352 uM): 96.7% and 92.3% | MESO1 viability (%) ([5]; conc 0.012207 uM): 91.8% | MESO1 viability (%) ([5]; conc 0.0244141 uM): 99.0% and 94.1% | MESO1 viability (%) ([5]; conc 0.0488281 uM): 84.2% and 90.6% | MESO1 viability (%) ([5]; conc 0.0976562 uM): 83.8% and 83.9% | MESO1 viability (%) ([5]; conc 0.195312 uM): 74.7% and 76.1% | MESO1 viability (%) ([5]; conc 0.390625 uM): 72.2% and 72.1% | MESO1 viability (%) ([5]; conc 0.78125 uM): 64.8% and 71.9% | MESO1 viability (%) ([5]; conc 1.5625 uM): 69.3% and 70.3% | MESO1 viability (%) ([5]; conc 3.125 uM): 69.9% | MESO1 viability (%) ([5]; conc 6.25 uM): 70.9% and 68.1% | MESO1 viability (%) ([5]; conc 12.5 uM): 63.1% and 61.3% | MESO1 viability (%) ([5]; conc 25 uM): 65.5% and 63.8% | MESO1 viability (%) ([5]; conc 50 uM): 61.4% and 51.1% | Effect on cell viability, in words [6]: slightly suppressed the cell viabilities
